Measurements as given in PMC9229294, “Pyridazinones and Structurally Related Derivatives with Anti-Inflammatory Activity” (Molecules, 2022).
Like-named read-outs stand apart in the source and are kept apart here.

Legend:
[1] = Cytotoxicity, CellTiter-Glo, THP1-Blue cells; type: cell-based, human; details: human, THP1-Blue cells; N.T. = no cytotoxicity at 50 µM; read-out: Cytotoxicity IC50 in THP1-Blue Cells
Experimental: (§1) Our studies included 175 compounds that were previously synthesized and characterized at NEUROFARBA, Pharmaceutical and Nutraceutical Section, University of Florence, Italy. We previously evaluated the FPR1/FPR2 agonist activity of these compounds by evaluating their ability to induce Ca^2+ mobilization in FPR-transfected HL60 cells and human neutrophils. […] All test compounds were dissolved in DMSO at stock concentrations of 10 mM and stored at −20 °C. For primary screening assays (analysis of NF-κB activation, IL-6 production, and cytotoxicity), the following final concentrations of the compounds were used: 3.125, 6.25, 12.5, 25, and 50 µM; the final concentration of DMSO was 1% in all samples.
(§2) The cytotoxicity was analyzed with a CellTiter-Glo Luminescent Cell Viability Assay Kit from Promega (Madison, WI, USA), according to the manufacturer’s protocol. The luminescent ATP assays are based on a luciferase enzymatic reaction which uses ATP from viable cells to generate photons. For this assay, the cells were incubated with the compounds under investigation for 24 h. After treatment, the cells were equilibrated to room temperature for 30 min, luciferase + luciferin substrate was added, and the samples were analyzed with a Fluoroscan Ascent FL (Thermo Fisher Scientific, Waltham, MA, USA). The IC50 values were calculated by plotting the percentage inhibition against the logarithm of the inhibitor concentration (at least five points).

[2] = system: LPS-induced NF-κB activity in THP1-Blue cells; assay: Inhibition of LPS-induced NF-κB transcriptional activity, alkaline phosphatase reporter, THP1-Blue cells; type: cell-based, human; details: for IC50: Homo sapiens, LPS-induced NF-κB activity, human THP1-Blue cells, N.A. = no activity at 50 µM; for Observed class for inhibition of NF-κB activity: experimentally observed, Active or N.A.
Experimental: as §1
The activation of NF-κB was measured using an alkaline phosphatase reporter assay in human monocytic THP1-Blue cells stably transfected with a secreted embryonic alkaline phosphatase gene that is under the control of a promoter inducible by the NF-κB. The THP1-Blue cells (2 × 10^5 cells/well) were pretreated with the test compound or DMSO for 30 min, followed by an addition of 250 ng/mL LPS for 24 h. Alkaline phosphatase activity was determined in cell supernatants using a QUANTI-Blue mix (InvivoGen) and measured at 655 nm and compared with positive control samples (LPS).

[3] = Cytotoxicity, CellTiter-Glo, MonoMac-6 cells; type: cell-based, human; details: human, MonoMac-6 cells
Experimental: as §1, §2

[4] = system: LPS-induced IL-6 production in MonoMac-6 cells; assay: Inhibition of LPS-induced IL-6 production in MonoMac-6 cells (ELISA); type: cell-based, human; details: for IC50: Homo sapiens; for Inhibition of LPS-induced IL-6 production (in words): MonoMac-6 cells, 250 ng/mL LPS, 24 h
Experimental: as §1
A human IL-6 ELISA kit (BD Biosciences, San Jose, CA, USA) was used to measure IL-6 production. […] The cells were pretreated with the test compound or DMSO for 30 min, followed by addition of 250 ng/mL LPS for 24 h. The IC50 values for IL-6 production were calculated by plotting the percentage inhibition against the logarithm of the inhibitor concentration (at least five points).

[5] = biological target: T1, FPR1 (Homo sapiens, UniProt P21462); details: FPR1-transfected HL-60 cells, read-out: Ca2+ Mobilization FPR1 EC50 in HL-60 Cells, cited from earlier work
T1 construct: expressed in transfected cells; host or cells: HL-60 cells (FPR1-HL60)
T1 sequence (P21462 1-350): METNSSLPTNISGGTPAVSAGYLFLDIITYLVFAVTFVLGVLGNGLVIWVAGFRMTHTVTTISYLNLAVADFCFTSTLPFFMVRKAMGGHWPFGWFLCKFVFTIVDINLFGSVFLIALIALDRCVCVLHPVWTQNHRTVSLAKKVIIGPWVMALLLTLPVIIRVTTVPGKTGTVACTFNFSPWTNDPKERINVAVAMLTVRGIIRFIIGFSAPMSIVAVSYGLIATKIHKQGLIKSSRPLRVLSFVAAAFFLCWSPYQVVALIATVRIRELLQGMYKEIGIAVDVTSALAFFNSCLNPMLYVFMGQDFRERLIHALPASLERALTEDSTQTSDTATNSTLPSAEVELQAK

[6] = biological target: T2, FPR2 (Homo sapiens, UniProt P25090); details: FPR2-transfected HL-60 cells, read-out: Ca2+ Mobilization FPR2 EC50 in HL-60 Cells, cited from earlier work
T2 construct: expressed in transfected cells; host or cells: HL-60 cells (FPR2-HL60)
T2 sequence (P25090 1-351): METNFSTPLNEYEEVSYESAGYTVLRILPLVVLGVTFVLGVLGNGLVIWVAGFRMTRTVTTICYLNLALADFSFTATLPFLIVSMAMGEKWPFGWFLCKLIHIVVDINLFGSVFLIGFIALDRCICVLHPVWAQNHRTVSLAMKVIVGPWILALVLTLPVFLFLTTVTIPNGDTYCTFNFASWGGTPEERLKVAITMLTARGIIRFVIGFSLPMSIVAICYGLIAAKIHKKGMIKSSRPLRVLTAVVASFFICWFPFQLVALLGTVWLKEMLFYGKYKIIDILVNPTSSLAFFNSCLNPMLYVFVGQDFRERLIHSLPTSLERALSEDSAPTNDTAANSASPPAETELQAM

[7] = MONO-MAC-6, read-out: Inhibition of IL-6 Production IC50 in MonoMac-6 Cells
[8] = Table 3, as reported previously (see Table 1)
[9] = MONO-MAC-6, 24 h, read-out: IC50, LPS-induced IL-6 production

Row | SMILES | IC50 at 24 h [1] [µM] | IC50 [2] [µM] | Observed class for inhibition of NF-κB activity [2] | IC50 at 24 h [3] [µM] | IC50 [4, 7] [µM] | EC50 [5, 8] [µM] | EC50 [6, 8] [µM] | EC50 ([5]; agonist activity from Table 1) [µM] | EC50 ([6]; agonist activity from Table 1) [µM] | Inhibition of LPS-induced IL-6 production (in words) [4] | IC50 [4, 9] [µM]
1 | CCc1c(C)nn(CC(=O)Nc2ccc(Br)cc2)c(=O)c1Cc1cccc(OC)c1 [Compound 78] | > 50 | 20.7 ± 0.7 | Active | > 50 | 17 ± 0.4 | 3.2 | 1.9 | – | – | – | –
2 | CCCc1c(C)nn(CC(=O)Nc2ccc(Br)cc2)c(=O)c1Cc1cccc(OC)c1 [Compound 79] | > 50 | 15.7 ± 1.4 | Active | > 50 | 13.7 ± 1.4 | – | – | 2.2 | 4.6 | – | –
3 | CCCCc1c(C)nn(CC(=O)Nc2ccc(Br)cc2)c(=O)c1Cc1cccc(OC)c1 [Compound 80] | > 50 | 15 ± 1.5 | Active | > 50 | 33.5 ± 2.4 | > 50 | 15.7 | > 50 | – | – | –
4 | CCCc1c(C)nn(CC(=O)Nc2ccc(Br)cc2)c(=O)c1Nc1cccc(OC)c1 [Compound 83] | > 50 | 14.6 ± 1.4 | Active | > 50 | 15.2 ± 0.2 | > 50 | > 50 | > 50 | > 50 | inhibitors of IL-6 production | –
5 | COc1cccc(Cc2cc(C)nn(C(C)(C)C(=O)Nc3ccc(Br)cc3)c2=O)c1 [Compound 89] | > 50 | 29.2 ± 1 | Active | > 50 | 27.9 ± 2.2 | 6.3 | 20.4 | 6.3 | 20.4 | – | –
6 | CC[C@H](C(=O)Nc1ccc(Br)cc1)n1nc(C)cc(Cc2cccc(OC)c2)c1=O [Compound 94] | > 50 | 30.8 ± 6.7 | – | > 50 | 14.3 ± 2 | 2.8 | 2.3 | 2.8 | 2.3 | – | –
7 | CC[C@@H](C(=O)Nc1ccc(Br)cc1)n1nc(C)cc(Cc2cccc(OC)c2)c1=O [Compound 95] | > 50 | 12.1 ± 2.4 | – | > 50 | 9.8 ± 1 | 13.4 | 22.2 | 13.4 | 22.2 | – | –
8 | CCC[C@H](C(=O)Nc1ccc(Br)cc1)n1nc(C)cc(Cc2cccc(OC)c2)c1=O [Compound 98] | > 50 | 10.6 ± 2.3 | – | > 50 | 5.6 ± 0.3 | 3 | 0.84 | 3 | 0.84 | – | –
9 | CC[C@](C)(C(=O)Nc1ccc(Br)cc1)n1nc(C)cc(Cc2cccc(OC)c2)c1=O [Compound 102] | > 50 | 22.1 ± 1.6 | – | > 50 | 19 ± 3.1 | 4.5 | 13.7 | 4.5 | 13.7 | – | –
10 | CC[C@@](C)(C(=O)Nc1ccc(Br)cc1)n1nc(C)cc(Cc2cccc(OC)c2)c1=O [Compound 103] | > 50 | 16.6 ± 0.6 | – | > 50 | 7.3 ± 1.2 | 7 | > 50 | 7 | > 50 | – | –
11 | COc1cccc(-n2ccc(=O)n(CC(=O)Nc3ccc(Br)cc3)c2=O)c1 [Compound 150] | > 50 | 21.4 ± 3.5 | Active | > 50 | 4 ± 1.2 | 4.3 | – | – | 3.6 | – | < 10
12 | O=C(Cn1c(=O)ccn(-c2ccccc2)c1=O)Nc1ccc(Br)cc1 [Compound 153] | > 50 | 20.8 ± 0.5 | Active | > 50 | 10.7 ± 0.1 | – | 8.9 | 12.5 | – | – | < 10
13 | CCCn1cc(-c2cccc(OC)c2)c(=O)n(CC(=O)Nc2ccc(Br)cc2)c1=O [Compound 154] | > 50 | 25.6 ± 2.3 | Active | > 50 | 2.6 ± 0.3 | – | – | 3.3 | 2.4 | – | –
14 | O=C(Cn1c(-c2ccc([N+](=O)[O-])cc2)csc1=O)Nc1ccc(Br)cc1 [Compound 169] | > 50 | 19.2 ± 0.1 | Active | > 50 | 3.2 ± 0.4 | 9.1 | > 50 | – | > 50 | potent IL-6 inhibitors | –
